Assay results published in patent US9505710B2 (priority 2015, dated 2016).
Where a name gives a salt, the structure may show the parent alone. Read-outs that look alike come from different tables or passages of the source.

Tests used:
BoNT/A LC1-429 [1] = target: T1, BoNT/A LC1-429 (Clostridium botulinum, UniProt P0DPI1); assay: biochemical
BoNT/A LC1-429 [2] = target: T1, BoNT/A LC1-429; assay: biochemical; settings: BoNT/A Ki (nM)

T1 sequence (P0DPI1 1-429, added parts left off): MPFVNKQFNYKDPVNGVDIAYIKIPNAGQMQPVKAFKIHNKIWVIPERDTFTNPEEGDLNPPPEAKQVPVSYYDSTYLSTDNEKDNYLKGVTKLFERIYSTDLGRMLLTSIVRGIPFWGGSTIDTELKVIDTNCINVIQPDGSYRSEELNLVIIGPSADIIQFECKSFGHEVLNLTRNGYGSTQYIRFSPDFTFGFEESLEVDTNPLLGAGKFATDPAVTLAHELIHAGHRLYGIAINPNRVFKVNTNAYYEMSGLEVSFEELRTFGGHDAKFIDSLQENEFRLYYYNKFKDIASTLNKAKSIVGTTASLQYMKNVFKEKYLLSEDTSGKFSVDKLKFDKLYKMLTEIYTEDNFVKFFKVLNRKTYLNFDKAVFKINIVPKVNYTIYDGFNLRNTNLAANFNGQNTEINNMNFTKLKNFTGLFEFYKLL

CCO[C@H](CC(=O)NO)[C@H](Cc1ccccc1)c1ccc(F)cc1 [Example 1-1, (3R,4R)-3-ethoxy-4-(4-fluorophenyl)-N-hydroxy-5-phenylpentanamide]
Ki (BoNT/A LC1-429 [1]): 38.5 nM

CCO[C@H](CC(=O)NO)[C@H](Cc1cccc(Br)c1)c1ccc(F)cc1 [Example 1-2, (3R,4R)-5-(3-bromophenyl)-3-ethoxy-4-(4-fluorophenyl)-N-hydroxypentanamide]
Ki (BoNT/A LC1-429 [1]): 154 nM

CCO[C@H](CC(=O)NO)[C@H](Cc1ccc(Br)cc1)c1ccc(F)cc1 [Example 1-4, (3R,4R)-5-(4-bromophenyl)-3-ethoxy-4-(4-fluorophenyl)-N-hydroxypentanamide]
Ki (BoNT/A LC1-429 [1]): 6.8 nM

C=Cc1ccc(C[C@H](c2ccc(F)cc2)[C@@H](CC(=O)NO)OCC)cc1 [Example 1-5, (3R,4R)-3-ethoxy-4-(4-fluorophenyl)-N-hydroxy-5-(4-vinylphenyl)pentanamide]
Ki (BoNT/A LC1-429 [1]): 33.5 nM

CCO[C@H](CC(=O)NO)[C@H](Cc1ccc(CC)cc1)c1ccc(F)cc1 [Example 1-6, (3R,4R)-3-ethoxy-5-(4-ethylphenyl)-4-(4-fluorophenyl)-N-hydroxypentanamide]
Ki (BoNT/A LC1-429 [1]): 91.5 nM

CCO[C@H](CC(=O)NO)[C@H](Cc1ccc(C(=O)NC)cc1)c1ccc(F)cc1 [Example 1-7]
Ki (BoNT/A LC1-429 [1]): 1220 nM

CCO[C@H](CC(=O)NO)[C@H](Cc1ccc(C(=O)N(C)C)cc1)c1ccc(F)cc1 [Example 1-8, 4-((2R,3R)-3-ethoxy-2-(4-fluorophenyl)-5-(hydroxyamino)-5-oxopentyl)-N,N-dimethylbenzamide]
Ki (BoNT/A LC1-429 [1]): 4350 nM

CCO[C@H](CC(=O)NO)[C@H](Cc1ccc(C(=O)O)cc1)c1ccc(F)cc1 [Example 1-10, 4-((2R,3R)-3-ethoxy-2-(4-fluorophenyl)-5-(hydroxyamino)-5-oxopentyl)benzoic acid]
Ki (BoNT/A LC1-429 [1]): 23300 nM

CCO[C@H](CC(=O)NO)[C@H](Cc1cccc(-c2ccncc2)c1)c1ccc(F)cc1 [Example 1-11, (3R,4R)-3-ethoxy-4-(4-fluorophenyl)-N-hydroxy-5-(3-(pyridin-4-yl)phenyl)pentanamide]
Ki (BoNT/A LC1-429 [1]): 1060 nM

CCO[C@H](CC(=O)NO)[C@H](Cc1ccc(-c2ccncc2)cc1)c1ccc(F)cc1 [Example 1-12, (3R,4R)-3-ethoxy-4-(4-fluorophenyl)-N-hydroxy-5-(4-(pyridin-4-yl)phenyl)pentanamide]
Ki (BoNT/A LC1-429 [1]): 178 nM

CCO[C@H](CC(=O)NO)[C@H](Cc1ccc(-c2cccnc2)cc1)c1ccc(F)cc1 [Example 1-13, (3R,4R)-3-ethoxy-4-(4-fluorophenyl)-N-hydroxy-5-(4-(pyridin-3-yl)phenyl)pentanamide]
Ki (BoNT/A LC1-429 [1]): 147 nM

CCO[C@H](CC(=O)NO)[C@H](Cc1ccc(-c2cncc(C)c2)cc1)c1ccc(F)cc1 [Example 1-14, (3R,4R)-3-ethoxy-4-(4-fluorophenyl)-N-hydroxy-5-(4-(5-methylpyridin-3-yl)phenyl)pentanamide]
Ki (BoNT/A LC1-429 [1]): 158 nM

O=C(C[C@@H](OCCO)[C@H](Cc1ccc(Cl)cc1)c1ccc(F)cc1F)NO [Example 6-18, (3R,4R)-5-(4-chlorophenyl)-4-(2,4-difluorophenyl)-N-hydroxy-3-(2-hydroxyethoxy)pentanamide]
Ki (BoNT/A LC1-429 [2]): 8.75 nM

O=C(C[C@@H](OCCCO)[C@H](Cc1ccc(Cl)cc1)c1ccc(F)cc1F)NO [Example 6-19, (3R,4R)-5-(4-chlorophenyl)-4-(2,4-difluorophenyl)-N-hydroxy-3-(3-hydroxypropoxy)pentanamide]
Ki (BoNT/A LC1-429 [2]): 1.45 nM

CO[C@H](CC(=O)NO)[C@H](Cc1ccc(Cl)cc1)c1ccc(F)cc1F [Example 6-20, (3R,4R)-5-(4-chlorophenyl)-4-(2,4-difluorophenyl)-N-hydroxy-3-methoxypentanamide potassium salt]
Ki (BoNT/A LC1-429 [2]): 8.3 nM

CCO[C@H](CC(=O)NO)[C@H](Cc1ccc(Cl)cc1)c1ccc(F)cc1F [Example 6-21, (3R,4R)-5-(4-chlorophenyl)-4-(2,4-difluorophenyl)-3-ethoxy-N-hydroxypentanamide potassium salt]
Ki (BoNT/A LC1-429 [2]): 12 nM

CO[C@H](CC(=O)NO)[C@H](Cc1ccc(Cl)cc1C)c1ccc(F)cc1F [Example 6-22, (3R,4R)-5-(4-chloro-2-methylphenyl)-4-(2,4-difluorophenyl)-N-hydroxy-3-methoxypentanamide potassium salt]
Ki (BoNT/A LC1-429 [2]): 6.7 nM

CO[C@H](CC(=O)NO)[C@H](Cc1ccc(Cl)cc1C)c1ccc(Br)cc1F [Example 6-23, (3R,4R)-4-(4-bromo-2-fluorophenyl)-5-(4-chloro-2-methylphenyl)-N-hydroxy-3-methoxypentanamide]
Ki (BoNT/A LC1-429 [2]): 1.94 nM

CCO[C@H](CC(=O)NO)[C@H](Cc1ccc(Cl)cc1)c1ccc(Cl)c(Br)c1 [Example 6-24, (3R,4R)-4-(3-bromo-4-chlorophenyl)-5-(4-chlorophenyl)-3-ethoxy-N-hydroxypentanamide]
Ki (BoNT/A LC1-429 [2]): 8.1 nM

CC(C)(C)OC(=O)NCCCO[C@H](CC(=O)NO)[C@H](Cc1ccc(Cl)cc1)c1ccc(F)cc1F [Example 6-25, tert-butyl (3-(((3R,4R)-5-(4-chlorophenyl)-4-(2,4-difluorophenyl)-1-(hydroxyamino)-1-oxopentan-3-yl)oxy)propyl)carbamate]
Ki (BoNT/A LC1-429 [2]): > 150000 nM

NCCCO[C@H](CC(=O)NO)[C@H](Cc1ccc(Cl)cc1)c1ccc(F)cc1F [Example 6-26, (3R,4R)-3-(3-aminopropoxy)-5-(4-chlorophenyl)-4-(2,4-difluorophenyl)-N-hydroxypentanamide]
Ki (BoNT/A LC1-429 [2]): 55000 nM

O=C(O)CCO[C@H](CC(=O)NO)[C@H](Cc1ccc(Cl)cc1)c1ccc(F)cc1F [Example 6-27, 3-(((3R,4R)-5-(4-chlorophenyl)-4-(2,4-difluorophenyl)-1-(hydroxyamino)-1-oxopentan-3-yl)oxy)propanoic acid]
Ki (BoNT/A LC1-429 [2]): 361 nM
